Drawing on PMC11709109, “Identification of AS1842856 as a novel small‐molecule GSK3α/β inhibitor against Tauopathy by accelerating GSK3α/β exocytosis” (Aging Cell, 2024), this text covers Kd for 1 compound.

The target in one assay is T1, GSK3β (Homo sapiens, UniProt P49841).
T1 construct: gene GSK3B; recombinant, His tag (Sino Biological 10044-H07B)
The assay is described as follows: bio-layer interferometry (Octet K2, Ni-NTA); supported by CETSA in N2a lysate. Format: binding.

Another assay has as its target T2, GSK3α (Homo sapiens, UniProt P49840).
T2 construct: gene GSK3A; recombinant, His tag (CLOUD-CLONE RPA360Hu01)
The description is as above. Format: binding.

T2 sequence (P49840 2-483): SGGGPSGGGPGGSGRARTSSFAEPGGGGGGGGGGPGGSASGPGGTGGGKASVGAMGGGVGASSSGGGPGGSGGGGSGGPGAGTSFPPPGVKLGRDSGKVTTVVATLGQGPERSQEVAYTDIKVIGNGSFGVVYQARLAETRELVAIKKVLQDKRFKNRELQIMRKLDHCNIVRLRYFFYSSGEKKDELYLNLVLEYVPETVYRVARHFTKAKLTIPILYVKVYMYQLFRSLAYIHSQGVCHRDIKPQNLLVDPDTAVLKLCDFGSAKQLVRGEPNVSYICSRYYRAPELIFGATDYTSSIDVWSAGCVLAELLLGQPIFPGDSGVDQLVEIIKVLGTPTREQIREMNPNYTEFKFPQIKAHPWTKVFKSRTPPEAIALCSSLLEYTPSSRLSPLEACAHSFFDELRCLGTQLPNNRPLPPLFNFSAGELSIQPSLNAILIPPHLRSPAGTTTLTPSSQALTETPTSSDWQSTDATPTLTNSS

`CCn1cc(C(=O)O)c(=O)c2c(N)c(F)c(NC3CCCCC3)cc21` [AS, AS1842856]: the Kd at GSK3β amounted to 40.9 µM; on GSK3α, 15.8 µM.
